What all share (assay type): cell-based, mouse
In assay [1] the test system is motor neurons in neurospheres innervating C2C12-derived muscle bundle. In words: Glutamate stimulation of neurospheres in three-dimensional microfluidic neuron-muscle coculture. On the procedure:
. After reassembling an open-reservoir variant of the microfluidic device onto the muscle strip, the medium contained in all channels was flushed with a collagen-Matrigel mix. Neurospheres ˜300 to 400 μm in diameter were manually selected, resuspended with the same collagen-Matrigel mixture as above, and individually pipetted into the leftmost channel (FIG. 9d and FIG. 8) before the devices were placed in the incubator for matrix gelation, after which medium was supplied to both open reservoirs. The diameter of the neurospheres being greater than the inter-post distance ensured their restriction to the assign channel, resulting in a physical separation of ˜1 mm between the neurons and the muscles.
The first muscle contraction, indicative of the presence of functional NMJs, was recorded 80 s after glutamate administration and the twitching frequency rose during the subsequent 120 s to reach a steady value of ˜1.25 Hz (FIG. 10a). The delay in contraction and increase of the twitching frequency is likely due to the diffusion of the glutamate to the motor neurons embedded in the ECM since this lag is absent in adherent 2D cultures (T. Wada, M. Honda, I. Minami, N. Tooi, Y. Amagai, N. Nakatsuji, K. Aiba, PLoS One 2009, 4, DOI 10.1371/journal.pone.0006722) or three-dimensional constructs in suspension (Y. Morimoto, M. Kato-Negishi, H. Onoe, S. Takeuchi, Biomaterials 2013, 34, 9413).
All three-dimensional cell cultures in the microfluidic devices were carried out in a collagen:Matrigel hydrogel in a 4:1 ratio. Rat tail type I collagen (Corning) was mixed on ice with 10×PBS with phenol red (serving as pH indicator), 0.5 N NaOH and water for cell culture in order to yield a collagen concentration of 2 mg·ml^−1 at a pH of 7.4. Matrigel without growth factors (BD science) was thoroughly mixed to the collagen at 20% of the final gel mixture volume. The gel was then used within a few minutes following its preparation in order to avoid pre-polymerization.
C2C12 were trypsinized, counted and centrifuged for 5 min at 200 rcf. […]

Assay [2] deals with NMJs between ChR2^H134R-HBG3-MN and C2C12-derived myotubes.
Assay [3] concerns NMJs between ChR2^H134R-HBG3-MN neurospheres and C2C12-derived muscle bundle.

“Also recorded” adds a separate entry of the source.

On to `N[C@@H](CCC(=O)O)C(=O)O` [Glutamate], for which the “steady muscle twitching frequency” value in assay [1] (400 μM in medium) is recorded as about 1.25 Hz. The “time to first muscle contraction after administration” value in assay [1] (400 μM in medium, leftmost channel) came to 80 s. Further, the “time over which twitching frequency rose to steady value” in assay [1] (400 μM, after first contraction) is 120 s.
For the molecule α-bungarotoxin, in assay [2], the “contractility of the myocytes after application (spontaneous twitches)” value is reported as “still contractile; also recorded: did not alter the contractility of the myocytes”, the “effect on light-induced muscle contraction” value is reported as “inhibited” and the “myocytes showing inhibition of light-induced muscle contraction” value is 17/17. Moreover, the “effect on light-driven muscle contraction (force F)” value in assay [3] is reported as “inhibited the contractions; also recorded: inhibited muscle contraction”.

(Values after US10767149B2, “Microfluidic device for three dimensional and compartmentalized coculture of neuronal and muscle cells, with functional force readout” (priority 2016, dated 2020).)
